One assay addresses adenosine A2B receptor (Homo sapiens (Human), UniProt P29275). Description: Adenosine receptor activity assay (Table 1), A2B activity. In kind it is biochemical. Particulars: for IC50: read-out: Ave A2B cAMP IC50.
Another assay concerns the target adenosine A2A receptor (Homo sapiens (Human), UniProt P29274). Description: Adenosine receptor activity assay (Table 1), A2A activity. The assay is classed as biochemical. Particulars: read-out: Ave A2A cAMP IC50.
Where [1] appears, read: A2A activity to A2B activity (A2A/A2B).
[2] abbreviates: A2A activity to the A2B activity, A2A/A2B.

For orientation: IC50 means the midpoint of a concentration-inhibition curve.

adenosine A2B receptor, sequence (P29275 whole entry): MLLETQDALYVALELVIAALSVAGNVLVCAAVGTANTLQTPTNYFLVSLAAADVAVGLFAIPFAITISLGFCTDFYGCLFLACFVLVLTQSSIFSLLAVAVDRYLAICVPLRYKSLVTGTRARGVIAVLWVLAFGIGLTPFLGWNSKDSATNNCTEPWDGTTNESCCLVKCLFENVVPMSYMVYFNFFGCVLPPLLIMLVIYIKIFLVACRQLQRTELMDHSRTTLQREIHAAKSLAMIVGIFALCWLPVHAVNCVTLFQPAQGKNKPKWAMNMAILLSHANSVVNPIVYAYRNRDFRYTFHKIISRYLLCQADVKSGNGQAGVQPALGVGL
adenosine A2A receptor, sequence (P29274 whole entry): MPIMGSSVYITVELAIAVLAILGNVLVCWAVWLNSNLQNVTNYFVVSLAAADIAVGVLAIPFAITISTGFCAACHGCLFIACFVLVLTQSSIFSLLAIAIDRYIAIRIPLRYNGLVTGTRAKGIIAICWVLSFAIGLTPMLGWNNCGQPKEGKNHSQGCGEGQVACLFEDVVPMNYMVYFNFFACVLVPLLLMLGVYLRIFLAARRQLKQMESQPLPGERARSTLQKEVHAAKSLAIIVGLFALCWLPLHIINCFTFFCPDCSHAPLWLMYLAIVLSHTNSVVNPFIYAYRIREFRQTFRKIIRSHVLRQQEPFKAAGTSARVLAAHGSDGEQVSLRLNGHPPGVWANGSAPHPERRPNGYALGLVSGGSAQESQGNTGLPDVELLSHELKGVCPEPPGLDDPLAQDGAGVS

Consider `C[C@H](Nc1nc(C(=O)N2CC[C@H](N)C2)c2sccc2n1)c1cccnc1` [Example Z367, ((S)-3-Aminopyrrolidin-1-yl)(2-(((S)-1-(pyridin-3-yl)ethyl)amino)thieno[3,2-d]pyrimidin-4-yl)methanone], for which, at adenosine A2B receptor (setting [1]), the Ratio is recorded as 5.78. In addition, the IC50 on adenosine A2B receptor and at adenosine A2A receptor was greater than 500 nM in each case.

Regarding `C[C@H](Nc1nc(C(=O)N[C@@H](C)CO)c2sccc2n1)c1ccccn1` [Example Z181, N—((S)-1-Hydroxypropan-2-yl)-2-(((S)-1-(pyridin-2-yl)ethyl)amino)thieno[3,2-d]pyrimidine-4-carboxamide], on adenosine A2B receptor (setting [1]), the Ratio is 5.43. Further, the half-maximal inhibitory concentration (IC50) at adenosine A2B receptor fell in the range of 50 to 100 nM; on adenosine A2A receptor, 100 to 500 nM.

As for `C[C@H](Nc1nc(C(=O)NCCC2CCNC2)c2sccc2n1)c1ccccn1` (stereo partly drawn) [Example Z431, 2-(((S)-1-(Pyridin-2-yl)ethyl)amino)-N-(2-(pyrrolidin-3-yl)ethyl)thieno[3,2-d]pyrimidine-4-carboxamide], at adenosine A2B receptor (setting [2]), the Ratio is 37.04. The concentration for half-maximal inhibition (IC50) at adenosine A2B receptor is 100 to 500 nM; at adenosine A2A receptor, greater than 500 nM.

Take `CC(C)(C)OC(=O)N1CC(NC(=O)c2nc(NCc3cncc(F)c3)nc3ccsc23)C1` [Example Z178, tert-Butyl 3-(2-(((5-fluoropyridin-3-yl)methyl)amino)thieno[3,2-d]pyrimidine-4-carboxamido)azetidine-1-carboxylate]: the Ratio at adenosine A2B receptor (setting [1]) is recorded as 3.76. In addition, the IC50 at adenosine A2B receptor and on adenosine A2A receptor was 100 to 500 nM in each case.

On to `O=C(c1nc(NCc2ccccc2)nc2ccsc12)N1CCCC1` [Example Z39, (2-(Benzylamino)thieno[3,2-d]pyrimidin-4-yl)(pyrrolidin-1-yl)methanone], for which, at adenosine A2B receptor (setting [1]), the Ratio is reported as 1.22. Moreover, the half-maximal inhibitory concentration (IC50) on adenosine A2B receptor and at adenosine A2A receptor was 100 to 500 nM each time.

Regarding `C[C@H](Nc1nc(C(=O)N2CCC(C(=O)O)C2)c2sccc2n1)c1ccccn1` (stereo partly drawn) [Example Z380, 1-(2-(((S)-1-(Pyridin-2-yl)ethyl)amino)thieno[3,2-d]pyrimidine-4-carbonyl)pyrrolidine-3-carboxylic acid], the Ratio on adenosine A2B receptor (setting [1]) is given as 13.21. Moreover, the IC50 at adenosine A2B receptor and at adenosine A2A receptor was greater than 500 nM each time.

Take “(6-Amino-2-(((S)-1-(pyridin-2-yl)ethyl)amino)thieno[3,2-d]pyrimidin-4-yl)((R)-3-fluoropyrrolidin-1-yl)methanone [Example Z174]”: on adenosine A2B receptor (setting [1]), the Ratio is recorded as 15.05. In addition, the half-inhibitory concentration (IC50) is 10 to 50 nM at adenosine A2B receptor and 100 to 500 nM at adenosine A2A receptor.

With `COC[C@H]1CCN1C(=O)c1nc(N[C@@H](C)c2cncc(F)c2)nc2cc(C)sc12` [Example Z570, (2-(((S)-1-(5-Fluoropyridin-3-yl)ethyl)amino)-6-methylthieno[3,2-d]pyrimidin-4-yl)((R)-2-(methoxymethyl)azetidin-1-yl)methanone], the Ratio at adenosine A2B receptor (setting [2]) worked out at 84.36. For the same molecule, the IC50 at adenosine A2B receptor was 10 to 50 nM; at adenosine A2A receptor, greater than 500 nM.

For the molecule `O=C(c1nc(NCc2cccc(Cl)c2)nc2ccsc12)N1CC[C@@H](O)C1` [Example Z118, (R)-(2-((3-Chlorobenzyl)amino)thieno[3,2-d]pyrimidin-4-yl)(3-hydroxypyrrolidin-1-yl)methanone], on adenosine A2B receptor (setting [1]), the Ratio came out at 13.75. Moreover, the IC50 at adenosine A2B receptor is 50 to 100 nM; at adenosine A2A receptor, greater than 500 nM.

As for `COCCNC(=O)c1nc(NCc2cncc(F)c2)nc2ccsc12` [Example Z146, 2-(((5-Fluoropyridin-3-yl)methyl)amino)-N-(2-methoxyethyl)thieno[3,2-d]pyrimidine-4-carboxamide], the 50% inhibitory concentration (IC50) on adenosine A2B receptor lay within 10 to 50 nM; at adenosine A2A receptor it was 100 to 500 nM.

For `O=C(NCc1cccc(F)c1)c1nc(NCc2cccc(F)c2)nc2ccsc12` [Example Z74, N-(3-Fluorobenzyl)-2-((3-fluorobenzyl)amino)thieno[3,2-d]pyrimidine-4-carboxamide], the Ratio at adenosine A2B receptor (setting [1]) is reported as 1.74. Moreover, the IC50 on adenosine A2B receptor and at adenosine A2A receptor was 100 to 500 nM throughout.

For the origin of these results see US11254686B1 (Corvus Pharmaceuticals, Inc., priority 2017, dated 2022).
